Structures can show the parent of a compound that is named as a salt.
How the values were obtained:
[1] = molecular target: α1-adrenoceptors (α1-ARs), rat cerebral cortex; assay: Radioligand binding assay with [3H]-prazosin, affinity for α1-ARs; conditions: three independent experiments in duplicates, read-out: α1-adrenoceptor affinity Ki
Experimental: In the first step, all synthesized compounds (1–15) were tested in vitro for their affinity for α1-ARs on rat cerebral cortex by the radioligand binding assay using [^3H]-prazosin as a specific radioligand.
The affinity for α1-ARs was determined by radioligand binding assay on rat cerebral cortex using [3H]-prazosin as a specific radioligand. The brains were homogenized in 20 volumes of an ice-cold 50 mM Tris-HCl buffer (pH 7.6) and were centrifuged (MPW Med. Instruments, Warsaw, Poland) at 20,000× g for 20 min (0–4 °C). The cell pellet was resuspended in the Tris-HCl buffer and centrifuged again. Radioligand-binding assay was performed in plates (MultiScreen/Millipore, Burlington, MA, USA). The final incubation mixture (final volume 300 μL) consisted of 240 μL of the membrane suspension, 30 μL of [3H]-Prazosin (0.2 nM) solution, and 30 μL of the buffer containing seven to eight concentrations (10^−11 to 10^−4 M) of the tested compounds. For measuring the unspecific binding, phentolamine, 10 μM (in the case of [3H]-Prazosin) was applied. The incubation was terminated by rapid filtration over glass fiber filters (Whatman GF/C, Sigma-Aldrich) using a vacuum manifold (Millipore). The filters were then washed twice with the assay buffer and placed in scintillation vials with a liquid-scintillation cocktail. Radioactivity was measured in a WALLAC 1409 DSA liquid-scintillation counter (BioSurplus, San Diego, CA, USA).
(§1) All statistics were performed using GraphPad Prism, Version 6.0 (GraphPad Software, San Diego, CA, USA). In the radioligand binding study, data were analyzed by a one-site curve-fitting equation, and inhibition constants (Ki) values were calculated via the Cheng-Prusoff equation [63]. In functional studies, data were analyzed using a sigmoidal dose-response (variable slope) equation. Arterial blood pressure data were analyzed using a two-way ANOVA with Sidak’s post-hoc test for multiple comparisons. A p < 0.05 was considered statistically significant.

[2] = molecular target: T1, human adrenergic receptor α1A (Homo sapiens, UniProt P35348); assay: Intrinsic activity, aequorin luminescence functional assay at α1A-AR; type: cell-based; conditions: for α1A-AR Profile: agonist/antagonist profile; for IC50: cells expressing aequorin and human α1A, against phenylephrine, means of three independent experiments in duplicates; for Selectivity Ratio α1B/α1A: selectivity for α1A-AR (IC50(α1B-AR)/IC50(α1A-AR))
T1 sequence (P35348 1-466): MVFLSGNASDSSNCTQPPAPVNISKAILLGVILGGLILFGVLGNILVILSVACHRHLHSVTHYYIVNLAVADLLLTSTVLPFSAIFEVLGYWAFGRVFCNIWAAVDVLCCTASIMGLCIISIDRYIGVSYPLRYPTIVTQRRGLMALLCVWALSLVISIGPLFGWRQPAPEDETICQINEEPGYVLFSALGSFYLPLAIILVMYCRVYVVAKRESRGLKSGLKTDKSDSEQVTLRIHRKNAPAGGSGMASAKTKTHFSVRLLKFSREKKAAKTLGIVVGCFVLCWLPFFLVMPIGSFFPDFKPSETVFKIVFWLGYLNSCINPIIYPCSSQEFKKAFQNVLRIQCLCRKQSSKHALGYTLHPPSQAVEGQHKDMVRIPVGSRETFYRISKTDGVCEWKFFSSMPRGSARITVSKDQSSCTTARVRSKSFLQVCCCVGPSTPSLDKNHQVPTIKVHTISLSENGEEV
Experimental: (§2) The subtype selectivity for α1A and α1B was calculated as IC50(α1B-AR)/IC50(α1A-AR) and IC50(α1A-AR)/IC50(α1B-AR) ratio, respectively.
(§3) Intrinsic activity at the α1-AR subtypes studies were performed using the cells expressing mitochondrially-targeted aequorin and one of the human adrenergic receptor α1A or α1B (PerkinElmer, Boston, MA, USA), according to the manufacturer’s instructions. For measurement, frozen cells were thawed and re-suspended in 10 mL of assay buffer containing 5 μM “Coelenterazine h”. This cell suspension was put in a 10 mL Falcon tube, fixed onto a rotating heel, and incubated overnight at rt in the dark (8 rpm; 45° angle). Cells were diluted with Assay Buffer to 5000 cells/20 μL. […] The light emitted was recorded for 20 s. Cells with antagonists were incubated for 15 min at room temperature. […] Luminescence was measured using the multidetection microplate reader (POLARstar Omega, BMG LABTECH, Ortenberg, Germany).
as §1

[3] = molecular target: T2, human adrenergic receptor α1B (Homo sapiens, UniProt P35368); assay: Intrinsic activity, aequorin luminescence functional assay at α1B-AR; type: cell-based; conditions: for α1B-AR Profile: agonist/antagonist profile; for IC50: cells expressing aequorin and human α1B, against phenylephrine, means of three independent experiments in duplicates; for Selectivity Ratio α1A/α1B: selectivity for α1B-AR (IC50(α1A-AR)/IC50(α1B-AR))
T2 sequence (P35368 1-520): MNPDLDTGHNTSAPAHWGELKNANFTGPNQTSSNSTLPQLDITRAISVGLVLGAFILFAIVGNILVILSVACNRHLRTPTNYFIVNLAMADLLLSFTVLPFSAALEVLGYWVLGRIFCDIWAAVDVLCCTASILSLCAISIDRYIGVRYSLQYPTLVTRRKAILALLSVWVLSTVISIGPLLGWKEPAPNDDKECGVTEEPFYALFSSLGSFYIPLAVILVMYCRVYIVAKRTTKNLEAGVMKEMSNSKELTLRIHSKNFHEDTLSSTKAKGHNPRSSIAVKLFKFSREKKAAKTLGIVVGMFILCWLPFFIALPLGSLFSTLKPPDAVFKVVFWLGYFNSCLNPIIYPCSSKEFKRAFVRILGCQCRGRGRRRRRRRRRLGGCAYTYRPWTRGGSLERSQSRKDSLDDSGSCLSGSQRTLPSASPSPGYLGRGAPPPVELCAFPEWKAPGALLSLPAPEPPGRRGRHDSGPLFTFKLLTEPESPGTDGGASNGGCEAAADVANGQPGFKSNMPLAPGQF
Experimental: as §2, §3, §1

[4] = tested on: arterial blood pressure of normotensive Wistar rats; assay: Influence on blood pressure in normotensive anesthetized rats after i.v. administration; type: in vivo, rat; conditions: 2.0 mg/kg i.v., mean, n = 6
Experimental: In the next step, the hypotensive activity of novel compounds 1–3, 5–9, and 11–14 was determined after i.v. administration to normotensive anesthetized rats. All results are shown in Supplementary Table S1.
The normotensive rats were anesthetized with thiopental (75 mg/kg) by intraperitoneal injection (i.p.). The left carotid artery was cannulated with a polyethylene tub filled with heparin in saline to facilitate pressure measurements using a PowerLab Apparatus (ADInstruments, Sydney, Australia). Blood pressure was measured immediately before administration of the tested compounds or vehicle—time 0 min (initial blood pressure) and 60 min thereafter. Initial blood pressure before administration of the tested chemicals in all experimental groups was similar. The tested compounds were dissolved in a specific vehicle: ethyl alcohol 5% − kolliphor 5% − water 90%. All tested chemicals were administrated intravenously (i.v.) at a constant volume of 1 mL/kg after 20 min of stabilization period. The compounds were tested at a starting dose of 2 mg/kg. If the hypotensive activity was found, the dose was reduced by half. The dosing was continued until the hypotensive effects disappeared. Urapidil was used as a reference compound.
as §1

[5] = 0 min (initial, before administration)

SMILES | Ki [1] [nM] | α1A-AR Profile [2] | IC50 [2] [nM] | Selectivity Ratio α1B/α1A [2] | α1B-AR Profile [3] | IC50 [3] [nM] | Selectivity Ratio α1A/α1B [3] | Diastolic blood pressure [4, 5] | Systolic blood pressure [4, 5] | Diastolic blood pressure ([4]; 5 min) | Systolic blood pressure ([4]; 5 min) | Diastolic blood pressure ([4]; 10 min) | Systolic blood pressure ([4]; 10 min) | Diastolic blood pressure ([4]; 20 min) | Systolic blood pressure ([4]; 20 min) | Diastolic blood pressure ([4]; 30 min) | Systolic blood pressure ([4]; 30 min) | Diastolic blood pressure ([4]; 40 min) | Systolic blood pressure ([4]; 40 min) | Diastolic blood pressure ([4]; 50 min) | further results
CC1(C)C(=O)N(Cc2ccc(Cl)cc2Cl)C(=O)N1CCCCCCN1CCN(c2ccc(Cl)c(Cl)c2)CC1.Cl [Compound 4, 3-(2,4-dichlorobenzyl)-1-(6-(4-(3,4-dichlorophenyl)piperazin-1-yl)hexyl)-5,5-dimethylimidazolidine-2,4-dione hydrochloride] | 255 |  |  |  |  |  |  |  |  |  |  |  |  |  |  |  |  |  |  |  | melting point: 154 to 156 °C
CC1(C)C(=O)N(Cc2ccc(Cl)cc2Cl)C(=O)N1CC(O)CN1CCN(c2ccccc2F)CC1 (stereo not drawn) [Compound 7] | 100 | Antagonist | 1410 | 0.34 | Antagonist | 484 | 2.92 | 103.2 | 137.8 | 91.5 | 125.3 | 91.0 | 124.3 | 93.0 | 121.8 | 92.0 | 123.8 | 94.3 | 123.7 | 93.2 | Systolic blood pressure ([4]; 50 min): 122.7; Diastolic blood pressure ([4]; 60 min): 91.3; Systolic blood pressure ([4]; 60 min): 121.5
CC1(C)C(=O)N(Cc2ccc(Cl)cc2Cl)C(=O)N1CC(O)CN1CCN(c2ccc(F)cc2)CC1 (stereo not drawn) [Compound 8] | 44 | Antagonist | 817 | 0.21 | Antagonist | 170 | 4.79 | 96.7 | 129.2 | 87.8 | 121.5 | 89.0 | 120.5 | 88.2 | 120.0 | 86.5 | 120.2 | 84.7 | 119.5 | 85.5 | Systolic blood pressure ([4]; 50 min): 120.0; Diastolic blood pressure ([4]; 60 min): 84.3; Systolic blood pressure ([4]; 60 min): 119.0
CC1(C)C(=O)N(Cc2ccc(Cl)cc2Cl)C(=O)N1CC(O)CN1CCN(c2ccc(F)cc2F)CC1 (stereo not drawn) [Compound 9] | 42 | Antagonist | 162 | 0.91 | Antagonist | 147 | 1.10 | 100.3 | 135.2 | 98.2 | 133.3 | 93.5 | 127.0 | 90.8 | 125.0 | 93.2 | 128.2 | 92.0 | 128.2 | 90.3 | Systolic blood pressure ([4]; 50 min): 127.2; Diastolic blood pressure ([4]; 60 min): 87.3; Systolic blood pressure ([4]; 60 min): 122.0

Second part, led by results:

Ki [1] [nM] | α1A-AR Profile [2] | IC50 [2] [nM] | Selectivity Ratio α1B/α1A [2] | α1B-AR Profile [3] | IC50 [3] [nM] | Selectivity Ratio α1A/α1B [3] | SMILES | Diastolic blood pressure [4, 5] | Systolic blood pressure [4, 5] | Diastolic blood pressure ([4]; 5 min) | Systolic blood pressure ([4]; 5 min) | Diastolic blood pressure ([4]; 10 min) | Systolic blood pressure ([4]; 10 min) | Diastolic blood pressure ([4]; 20 min) | Systolic blood pressure ([4]; 20 min) | Diastolic blood pressure ([4]; 30 min) | Systolic blood pressure ([4]; 30 min) | Diastolic blood pressure ([4]; 40 min) | Systolic blood pressure ([4]; 40 min) | Diastolic blood pressure ([4]; 50 min) | further results
778 |  |  |  |  |  |  | CC1(C)C(=O)N(Cc2ccc(Cl)cc2Cl)C(=O)N1CC(O)CN1CCN(c2ccc(Cl)c(Cl)c2)CC1.Cl (stereo not drawn) [Compound 10, 3-(2,4-dichlorobenzyl)-1-(3-(4-(3,4-dichlorophenyl)piperazin-1-yl)-2-hydroxypropyl)-5,5-dimethylimidazolidine-2,4-dione hydrochloride] |  |  |  |  |  |  |  |  |  |  |  |  |  | melting point: 223 to 225 °C
2440 |  |  |  |  |  |  | CC1(C)C(=O)N(Cc2ccc(Cl)cc2Cl)C(=O)N1CC(O)CN1CCN(C(c2ccccc2)c2ccccc2)CC1 (stereo not drawn) [Compound 15] |  |  |  |  |  |  |  |  |  |  |  |  |  | 
 | Agonist |  |  | Agonist |  |  | CNC[C@H](O)c1cccc(O)c1 [Phenylephrine, phenylephrine, reference compound] |  |  |  |  |  |  |  |  |  |  |  |  |  | 
 | Antagonist |  |  | Antagonist | 0.48 |  | CCOc1ccccc1OCCN[C@H](C)Cc1ccc(OC)c(S(N)(=O)=O)c1 [Tamsulosin, tamsulosin hydrochloride, reference compound] |  |  |  |  |  |  |  |  |  |  |  |  |  | 
 | Antagonist |  |  | Antagonist |  |  | COc1cc2nc(N3CCN(C(=O)C4CCCO4)CC3)nc(N)c2cc1OC (stereo not drawn) [Terazosin, terazosin hydrochloride, reference compound] |  |  |  |  |  |  |  |  |  |  |  |  |  | 
